# Data as given in PubChem BioAssay (NCI).
# Values joined by “and” are separate entries in the source; they are usually repeats but may differ in a detail not shown here. Equal values may be shown once.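 Five concentrations, 48 hours, 96-well plates. The concentration for 50% growth inhibition is given as GI50. TGI is the concentration that stops growth completely.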
# What was measured:
# Assay in all cases: NCI tumour cell line growth inhibition, 48 h
# UACC-257 melanoma = system: UACC-257 melanoma
# COLO 205 colon = system: COLO 205 colon
# NCI-H226 lung = system: NCI-H226 lung
# RPMI-8226 leukemia = system: RPMI-8226 leukemia
# IGROV1 ovarian = system: IGROV1 ovarian
# NCI-H522 lung = system: NCI-H522 lung
# KM12 colon = system: KM12 colon
# SF-268 CNS = system: SF-268 CNS
# SK-MEL-5 melanoma = system: SK-MEL-5 melanoma
# UO-31 renal = system: UO-31 renal
Structure (SMILES),TGI (UACC-257 melanoma),TGI (COLO 205 colon),TGI (NCI-H226 lung),TGI (RPMI-8226 leukemia),TGI (IGROV1 ovarian),TGI (NCI-H522 lung),TGI (KM12 colon),TGI (SF-268 CNS),TGI (SK-MEL-5 melanoma),TGI (UO-31 renal),GI50 (UACC-257 melanoma),GI50 (COLO 205 colon),GI50 (NCI-H226 lung),GI50 (RPMI-8226 leukemia),GI50 (IGROV1 ovarian),GI50 (NCI-H522 lung),GI50 (KM12 colon),GI50 (SF-268 CNS),GI50 (SK-MEL-5 melanoma),GI50 (UO-31 renal)
Cc1cc(NC(=O)NC(=O)c2ccccc2[N+](=O)[O-])ccc1Oc1ncc(Cl)cn1,> 100 µM,> 20 µM,12.8 µM,> 100 µM,98.9 µM,0.201 µM,13 µM,> 82.3 µM,3.32 µM,75.6 µM,–,–,–,–,–,–,–,–,–,–
COC(=O)C1=C(C(=O)Nc2cccnc2)C2OC1(C(Cc1ccccc1)Oc1ccccc1)C1OC21 (stereo not given),3.71 µM,3.29 µM,4.12 µM,6 µM,25.8 µM,2.95 µM,33.3 µM,27.9 µM,31.3 µM,2.49 µM,1.85 µM,1.73 µM,1.92 µM,2.14 µM,9.17 µM,1.37 µM,14.6 µM,13 µM,15.6 µM,1.24 µM
CC(/C=C/C=C/C=C/C=C/C=C/C(O)=C1/C(=O)C(CCC(=O)O)N(C)C1=O)=C\C(C)C(OC1CC(O)C(O)C(C)O1)C(C)C (stereo not given),6.66 µM,4.48 µM,11.8 µM,9.25 µM,4.48 µM,7.35 µM,3.73 µM,14 µM,3.85 µM,13.5 µM,–,–,–,–,–,–,–,–,–,–
COC(=O)C1C2CC3C(OC(=O)C31)C2I (stereo not given),> 100 µM,> 100 µM,> 100 µM,> 100 µM,> 100 µM,> 100 µM,> 100 µM,> 100 µM,> 100 µM,> 100 µM,–,–,–,–,–,–,–,–,–,–
COc1cc(C2=Nc3c/c(=C\c4c(O)[nH]c5ccc(Cl)cc45)ccc3=N2)cc(OC)c1OC,4.77 µM,7.27 µM,29.7 µM,5.77 µM,20.3 µM,10.7 µM,12.2 µM,3.78 µM,3.55 µM,16.1 µM,1.96 µM,2.45 µM,10.3 µM,2.04 µM,5.46 µM,3.17 µM,3.09 µM,1.93 µM,1.58 µM,2.96 µM
Oc1ccc(Cl)cc1Cc1cc(Cl)cc(Cc2cc(Cl)ccc2O)c1O,5.18 µM,3.25 µM,7.07 µM,5.49 µM,13.5 µM,3.32 µM,10.5 µM,12 µM,2.56 µM,10.3 µM,–,–,–,–,–,–,–,–,–,–
CN(C)c1cc2c(Nc3ccc4nc(Cc5ccccc5)[nH]c4c3)ncnc2cn1,> 25 µM,> 25 µM,> 25 µM,> 25 µM,> 25 µM,> 25 µM,> 25 µM,> 25 µM,> 16 µM,> 25 µM,> 15.3 µM,> 25 µM,> 18 µM,11.4 µM,9.21 µM,10.9 µM,13.8 µM,> 23.4 µM,8.99 µM,12.2 µM
S=C1CNC(=S)CN1,> 100 µM,> 100 µM,> 100 µM,> 100 µM,> 100 µM,> 100 µM,> 100 µM,> 100 µM,> 100 µM,> 100 µM,–,–,–,–,–,–,–,–,–,–
Nc1nn(C(=O)Nc2ccc(Cc3ccccc3)cc2)c2ccc(Cl)cc12,> 100 µM,28.9 µM,> 81.7 µM,47.7 µM,> 100 µM,> 100 µM,> 100 µM,52.3 µM,25.8 µM,82.7 µM,10.1 µM,1.92 µM,13.5 µM,5.21 µM,19.9 µM,7.96 µM,0.0755 µM,13.2 µM,0.33 µM,5.9 µM
O=C(O[C@H]1CN[C@H](C#Cc2cc3ncnc(Nc4ccc(Cc5ccccc5)cc4)c3s2)C1)N1CCOCC1,> 22.1 µM,13.1 µM,15.7 µM,24.9 µM,> 20.1 µM,4.2 µM,8.72 µM,10.6 µM,8.83 µM,> 25 µM,5.46 µM,5.37 µM,5.01 µM,6.47 µM,2.45 µM,0.482 µM,4.28 µM,3.8 µM,4.23 µM,3.36 µM
Clc1cccc(Cn2cc(Cc3cn(Cc4cccc(Cl)c4)c4ccccc34)c3ccccc32)c1,> 100 µM,> 100 µM,59 µM,> 100 µM,> 100 µM,> 100 µM,> 100 µM,> 100 µM,> 100 µM,> 100 µM,> 100 µM,> 100 µM,10.1 µM,> 100 µM,32 µM,45.5 µM,> 100 µM,> 100 µM,> 100 µM,10.5 µM
CCN1CCN(CCNc2nccc(-c3c(-c4cccc(O)c4)nc4sccn34)n2)S1(=O)=O,32.5 µM and 9.03 µM,32.5 µM and 15.9 µM,> 32.5 µM and 84.3 µM,20.7 µM and 40.8 µM,32.5 µM and > 100 µM,29.8 µM and 31.2 µM,32.5 µM and > 100 µM,32.5 µM and > 100 µM,23.1 µM and 20.7 µM,32.5 µM and 74 µM,0.31 µM and 0.215 µM,0.296 µM and 0.336 µM,> 32.5 µM and 26.4 µM,6.37 µM and 16.3 µM,11.9 µM and 5.5 µM,7.65 µM and 4.27 µM,11 µM and 11.2 µM,23.4 µM and 19.9 µM,5.28 µM and 6.28 µM,15.1 µM and 5.75 µM
O=C1OCC2=C1C(c1cccc([N+](=O)[O-])c1)c1cc3c(cc1N2CCO)CCC3 (stereo not given),> 50 µM,2.39 µM,49.4 µM,> 39 µM,> 50 µM,6.3 µM,19.8 µM,22.9 µM,3.56 µM,> 34.3 µM,11.5 µM,0.153 µM,1.77 µM,0.25 µM,0.255 µM,0.0431 µM,0.0928 µM,0.295 µM,0.127 µM,0.269 µM
COc1ccc(Nc2nc(NCc3ccccc3)c3ccccc3n2)cc1,13.8 µM,3.33 µM,37.1 µM,4.85 µM,25.7 µM,16.1 µM,13.8 µM,25.1 µM,3.14 µM,19.8 µM,3.82 µM,1.86 µM,11.5 µM,1.85 µM,7.12 µM,3.66 µM,3.81 µM,8.85 µM,1.68 µM,5.09 µM
C[C@@]12CCC[C@@](C)(C(=O)O)C1CC[C@]13C=C(CO)[C@](O)(CCC12)C3 (stereo not given in full),> 100 µM,> 100 µM,> 100 µM,> 100 µM,> 100 µM,> 100 µM,> 100 µM,> 100 µM,> 100 µM,> 100 µM,> 100 µM,> 100 µM,> 100 µM,> 100 µM,> 100 µM,> 100 µM,> 100 µM,> 100 µM,> 100 µM,> 100 µM
O=C(/C=C/c1ccccc1Cl)c1ccc(O)cc1,22.5 µM,34.8 µM,42.8 µM,3.39 µM,5.25 µM,23.9 µM,11.6 µM,25.3 µM,23.4 µM,14 µM,9.79 µM,12.8 µM,15.2 µM,0.495 µM,2.25 µM,9.33 µM,3.57 µM,8.91 µM,9.57 µM,4.85 µM
COc1c(Nc2ncc(Cl)c(N[C@@H]3[C@H]4C=CC(C4)[C@@H]3C(N)=O)n2)ccc2c1CC[C@@H](N1CCOCC1)CC2,19.8 µM,5.5 µM,30.2 µM,28.5 µM,35.8 µM,15 µM,25.2 µM,20.8 µM,19.2 µM,10.7 µM,4.81 µM,1.74 µM,3.81 µM,4.28 µM,5.3 µM,5.47 µM,4.93 µM,4.71 µM,5.81 µM,2.07 µM
CCC1(O)C(=O)OCc2c1cc1n(c2=O)Cc2c-1nc1ccccc1c2OC (stereo not given),2.68 µM,13.9 µM,0.12 µM,0.511 µM,5.65 µM,0.984 µM,10.8 µM,2.31 µM,0.205 µM,0.249 µM,–,–,–,–,–,–,–,–,–,–
COc1ccc(S(=O)(=O)Nc2cc(/C=C\c3cc(OC)c(OC)c(OC)c3)cc(OC)c2OC)cc1OC,> 100 µM,> 100 µM,> 100 µM,> 100 µM,> 100 µM,> 100 µM,> 100 µM,> 100 µM,13.1 µM,> 100 µM,27 µM,1.28 µM,1.87 µM,0.567 µM,4.58 µM,0.369 µM,0.639 µM,20.8 µM,0.488 µM,1.59 µM
Cn1c(=O)c(Sc2ccccc2F)cc2cnc(NC3CCOCC3)nc21,> 25 µM,> 25 µM,> 25 µM,> 25 µM,> 25 µM,> 25 µM,> 25 µM,> 25 µM,> 25 µM,> 25 µM,> 25 µM,> 25 µM,> 25 µM,> 25 µM,> 25 µM,> 25 µM,> 25 µM,> 25 µM,> 25 µM,> 25 µM
O=S(=O)(c1ccc2c(c1)C(=NO)c1cc(S(=O)(=O)N3CCCCC3)ccc1-2)N1CCCCC1,0.32 µM,> 1 µM and 0.363 µM,0.936 µM and 0.298 µM,0.424 µM and 0.452 µM,0.494 µM and 0.213 µM,> 1 µM and 0.252 µM,> 1 µM and 0.356 µM,0.44 µM and 0.318 µM,> 1 µM and 0.314 µM,0.319 µM and 0.11 µM,0.17 µM,> 1 µM and 0.194 µM,0.292 µM and 0.106 µM,0.189 µM and 0.126 µM,0.131 µM and 0.0732 µM,> 1 µM and 0.107 µM,0.508 µM and 0.184 µM,0.215 µM and 0.12 µM,> 1 µM and 0.174 µM,0.16 µM and 0.0467 µM
CCS(=O)(=O)c1ccc(OC)c(Nc2ncc(-c3cccc(-c4ccccc4F)c3)o2)c1,> 25 µM,> 25 µM,> 25 µM,> 25 µM,20.7 µM,> 25 µM,> 25 µM,> 25 µM,> 25 µM,20.3 µM,> 25 µM,> 20.1 µM,2.24 µM,23.9 µM,6.1 µM,10.6 µM,0.833 µM,15.1 µM,> 14.6 µM,1.48 µM
COc1ccccc1/C=C1\CCC(CN(C)C)C1=O (stereo not given),25 µM,8.38 µM,25 µM,21.1 µM,32.7 µM,3.56 µM,12.4 µM,29.7 µM,30.4 µM,18 µM,–,–,–,–,–,–,–,–,–,–
COc1cccc(C2=NN(C(C)=O)C(c3cc(OC)c(OC)c(OC)c3)C2)c1 (stereo not given),> 100 µM,12.3 µM,> 100 µM,4.36 µM,> 72.1 µM,> 66.3 µM,> 100 µM,> 100 µM,10.2 µM,> 100 µM,> 100 µM,3.35 µM,> 100 µM,1.08 µM,4.08 µM,3.97 µM,1.48 µM,10.8 µM,0.829 µM,7.65 µM
COc1cc2c3c(n(CCCN=[N+]=[N-])c(=O)c2cc1OC)-c1ccc(N)cc1C3=O,1.49 µM,1.23 µM,1.16 µM,0.446 µM,0.637 µM,0.983 µM,1.16 µM,> 32.4 µM,0.223 µM,0.803 µM,0.431 µM,0.4 µM,0.249 µM,0.0306 µM,0.153 µM,0.133 µM,0.334 µM,0.34 µM,0.0784 µM,0.146 µM
Cc1nc(NC(=O)COc2cccc(/C=C3\COc4ccccc4C3=O)c2)sc1C,8.13 µM,3.88 µM,9.66 µM,> 100 µM,0.902 µM,4.41 µM,2.92 µM,3.5 µM,3.81 µM,1.63 µM,2.88 µM,1.96 µM,3.32 µM,14.8 µM,0.43 µM,1.89 µM,1.5 µM,1.85 µM,1.86 µM,0.704 µM
Clc1ccc(-c2nc(-c3c[nH]c4ncccc34)cs2)cc1,> 100 µM,> 100 µM,> 100 µM,> 100 µM,> 100 µM,> 100 µM,> 100 µM,> 100 µM,> 100 µM,> 100 µM,> 100 µM,> 100 µM,> 100 µM,> 100 µM,4.78 µM,> 100 µM,> 100 µM,> 100 µM,> 100 µM,> 100 µM
